From publication PMC8341910, “Structural and biophysical insights into the mode of covalent binding of rationally designed potent BMX inhibitors” (RSC Chemical Biology, 2020)

Assays:
[1] = system: PC3; test: Multi cell line growth assay (CellTiter-Glo, 72 h); assay type: cell-based, human; settings: Homo sapiens, PC-3, Prostate, ND = no growth inhibition observed
[2] = system: RS4(11); test: Multi cell line growth assay (CellTiter-Glo, 72 h); assay type: cell-based, human; settings: Homo sapiens, RS4-11, Lung (so in the source), ND = no growth inhibition observed
[3] = target: STK11 (Homo sapiens, UniProt Q15831); test: KINOMEscan binding; settings: read-out: % Ctrl STK11
Experimental: (§1) Therefore, we included the whole TEC, EGFR and JAK family in our screening, and the Src family and Lkb1, which also have a cysteine within the same sequence alignment. We also included kinases involved in upstream (Src, FAK, PI3K, mTOR, PDK1) and downstream (Akt, PAK1, TAM) regulation of BMX signaling pathway and non-receptor tyrosine protein kinase Abl.
(§2) Kinome selectivity was performed with DiscoverX KINOMEscan™ technology.

[4] = target: ERBB3 (Homo sapiens, UniProt P21860); test: KINOMEscan binding; settings: read-out: % Ctrl ERBB3
Experimental: (§3) Therefore, we included the whole TEC, EGFR and JAK family in our screening, and the Src family and Lkb1, which also have a cysteine within the same sequence alignment.
as §2

[5] = target: TEC (Homo sapiens, UniProt P42680); test: KINOMEscan binding; settings: read-out: % Ctrl TEC
Experimental: as §3, §2

[6] = target: ITK (Homo sapiens, UniProt Q08881); test: KINOMEscan binding; settings: read-out: % Ctrl ITK
Experimental: as §3, §2

[7] = target: T1, wild-type BMX in PC3 cells (Homo sapiens, UniProt P51813); test: BMX degradation assay in PC3 cells (Western blot); assay type: cell-based; settings: 10 μM; 24 h and 72 h; band intensity normalized to α-Tubulin
T1 construct: endogenous in cells; host or cells: PC3 prostate cancer cells (wild-type, untransfected)
Experimental: The cell proliferation depends on BMX kinase activity that was used to monitor the cellular activity of the compounds (IC50). […].  Fig. 5 (a) Intracellular target engagement in HEK293 cells transiently transfected with BMX expressing NanoLuc®-BMX fusion vector with Promega's NanoBRET™ TE Intracellular Kinase Assay. […] Band intensity was measured using ImageJ and normalized with α-Tubulin band intensity. […] Data are mean ± standard deviation obtained from at least three independent measurements (n = 3). See ESI ^† for additional data and analysis. […] | page 12: […]
degradation assay. Protein band intensity normalized with α-Tubulin band intensity and quantified using ImageJ. Data was obtained from at least three independent measurements […]
concentration against PC3 cells, plated on 6-well plates, a day after attachment. DMSO was used as a control vehicle. At 24 h and 72 h of incubation, cells were washed in 1X PBS and lysed in 100 µL RIPA Buffer (in house) supplemented with EDTA-free Protease Inhibitor Cocktail (Merk) and DNase I (Merk). The lysis procedure was performed by re-suspending cells continuously, followed by a incubation of 30 min on ice. BMX antibody (Abcam) and tubulin antibody (Cell signaling Technology) were used in the Western blot. Band intensity […]

[8] = target: AKT3 (Homo sapiens, UniProt Q9Y243); test: KINOMEscan binding; settings: read-out: % Ctrl AKT3
Experimental: as §1, §2

[9] = target: MERTK (Homo sapiens, UniProt Q12866); test: KINOMEscan binding; settings: read-out: % Ctrl MERTK
MERTK, sequence (Q12866 21-999): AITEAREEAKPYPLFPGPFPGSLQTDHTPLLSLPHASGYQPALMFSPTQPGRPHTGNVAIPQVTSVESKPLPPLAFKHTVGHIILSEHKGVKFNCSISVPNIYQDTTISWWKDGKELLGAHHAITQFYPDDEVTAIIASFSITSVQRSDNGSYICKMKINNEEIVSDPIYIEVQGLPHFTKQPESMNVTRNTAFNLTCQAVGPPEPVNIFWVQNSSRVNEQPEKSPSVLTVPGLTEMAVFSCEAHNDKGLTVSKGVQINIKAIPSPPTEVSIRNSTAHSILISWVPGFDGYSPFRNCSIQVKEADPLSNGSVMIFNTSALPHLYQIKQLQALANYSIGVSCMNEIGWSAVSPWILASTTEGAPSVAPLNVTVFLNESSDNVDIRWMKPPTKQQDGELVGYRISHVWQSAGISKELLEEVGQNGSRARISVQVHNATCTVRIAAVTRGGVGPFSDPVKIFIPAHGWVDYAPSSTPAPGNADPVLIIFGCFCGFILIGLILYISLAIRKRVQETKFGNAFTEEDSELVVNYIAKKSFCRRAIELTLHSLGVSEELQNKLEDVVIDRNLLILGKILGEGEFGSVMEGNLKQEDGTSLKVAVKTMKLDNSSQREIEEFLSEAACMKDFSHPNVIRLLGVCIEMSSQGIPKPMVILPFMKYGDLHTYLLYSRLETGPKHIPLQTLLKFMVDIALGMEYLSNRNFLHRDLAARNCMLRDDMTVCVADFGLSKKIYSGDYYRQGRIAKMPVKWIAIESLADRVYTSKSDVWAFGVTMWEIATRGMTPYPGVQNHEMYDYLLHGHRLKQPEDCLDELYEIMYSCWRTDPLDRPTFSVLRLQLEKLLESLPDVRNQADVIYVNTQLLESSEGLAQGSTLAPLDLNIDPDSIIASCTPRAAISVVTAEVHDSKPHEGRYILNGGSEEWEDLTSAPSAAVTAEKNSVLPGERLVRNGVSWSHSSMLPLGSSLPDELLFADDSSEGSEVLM
Experimental: as §1, §2

TEC, sequence (P42680 whole entry): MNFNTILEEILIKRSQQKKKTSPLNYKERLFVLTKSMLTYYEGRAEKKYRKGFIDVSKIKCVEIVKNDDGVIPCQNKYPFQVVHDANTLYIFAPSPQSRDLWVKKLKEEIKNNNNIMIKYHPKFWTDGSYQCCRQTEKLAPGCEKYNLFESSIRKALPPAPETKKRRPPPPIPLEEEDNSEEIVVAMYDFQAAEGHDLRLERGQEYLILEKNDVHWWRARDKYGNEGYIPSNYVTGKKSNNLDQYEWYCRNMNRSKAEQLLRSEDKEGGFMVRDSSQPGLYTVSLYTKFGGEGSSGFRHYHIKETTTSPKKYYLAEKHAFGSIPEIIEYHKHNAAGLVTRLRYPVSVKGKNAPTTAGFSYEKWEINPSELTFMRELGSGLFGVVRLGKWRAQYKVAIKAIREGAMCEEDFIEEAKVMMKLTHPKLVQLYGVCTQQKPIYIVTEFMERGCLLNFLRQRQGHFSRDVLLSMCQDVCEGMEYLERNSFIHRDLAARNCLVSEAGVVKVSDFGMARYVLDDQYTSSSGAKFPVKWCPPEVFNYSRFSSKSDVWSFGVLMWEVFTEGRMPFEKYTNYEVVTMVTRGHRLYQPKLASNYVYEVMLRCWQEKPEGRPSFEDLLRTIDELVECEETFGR
ITK, sequence (Q08881 whole entry): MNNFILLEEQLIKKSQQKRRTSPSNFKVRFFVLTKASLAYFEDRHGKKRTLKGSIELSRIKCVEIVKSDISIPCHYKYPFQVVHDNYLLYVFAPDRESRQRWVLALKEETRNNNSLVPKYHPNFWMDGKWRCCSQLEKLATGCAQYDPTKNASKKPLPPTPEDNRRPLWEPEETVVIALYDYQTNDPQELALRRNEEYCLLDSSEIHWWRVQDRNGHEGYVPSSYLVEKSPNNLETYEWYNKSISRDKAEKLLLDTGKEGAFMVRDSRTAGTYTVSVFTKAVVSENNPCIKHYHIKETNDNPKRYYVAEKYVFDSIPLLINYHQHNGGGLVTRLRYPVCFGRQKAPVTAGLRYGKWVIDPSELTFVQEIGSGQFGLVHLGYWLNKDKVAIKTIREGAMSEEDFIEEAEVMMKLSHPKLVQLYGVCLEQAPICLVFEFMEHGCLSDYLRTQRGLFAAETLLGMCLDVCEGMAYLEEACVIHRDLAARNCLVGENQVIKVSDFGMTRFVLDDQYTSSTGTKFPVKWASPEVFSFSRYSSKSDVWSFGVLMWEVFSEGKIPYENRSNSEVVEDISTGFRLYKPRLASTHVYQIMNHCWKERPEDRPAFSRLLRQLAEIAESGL
STK11, sequence (Q15831 whole entry): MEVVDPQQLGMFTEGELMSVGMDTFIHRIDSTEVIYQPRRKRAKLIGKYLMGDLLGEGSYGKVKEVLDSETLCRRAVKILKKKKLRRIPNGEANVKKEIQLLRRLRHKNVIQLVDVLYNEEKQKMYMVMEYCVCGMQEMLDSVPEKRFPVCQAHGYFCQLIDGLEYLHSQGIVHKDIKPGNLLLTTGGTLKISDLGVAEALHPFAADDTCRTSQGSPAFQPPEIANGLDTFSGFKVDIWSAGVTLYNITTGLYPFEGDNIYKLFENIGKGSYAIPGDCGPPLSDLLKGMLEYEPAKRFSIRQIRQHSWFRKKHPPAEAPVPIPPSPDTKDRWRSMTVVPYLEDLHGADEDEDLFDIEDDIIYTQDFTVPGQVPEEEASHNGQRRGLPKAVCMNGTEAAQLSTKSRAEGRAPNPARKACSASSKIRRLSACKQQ
ERBB3, sequence (P21860 20-1342): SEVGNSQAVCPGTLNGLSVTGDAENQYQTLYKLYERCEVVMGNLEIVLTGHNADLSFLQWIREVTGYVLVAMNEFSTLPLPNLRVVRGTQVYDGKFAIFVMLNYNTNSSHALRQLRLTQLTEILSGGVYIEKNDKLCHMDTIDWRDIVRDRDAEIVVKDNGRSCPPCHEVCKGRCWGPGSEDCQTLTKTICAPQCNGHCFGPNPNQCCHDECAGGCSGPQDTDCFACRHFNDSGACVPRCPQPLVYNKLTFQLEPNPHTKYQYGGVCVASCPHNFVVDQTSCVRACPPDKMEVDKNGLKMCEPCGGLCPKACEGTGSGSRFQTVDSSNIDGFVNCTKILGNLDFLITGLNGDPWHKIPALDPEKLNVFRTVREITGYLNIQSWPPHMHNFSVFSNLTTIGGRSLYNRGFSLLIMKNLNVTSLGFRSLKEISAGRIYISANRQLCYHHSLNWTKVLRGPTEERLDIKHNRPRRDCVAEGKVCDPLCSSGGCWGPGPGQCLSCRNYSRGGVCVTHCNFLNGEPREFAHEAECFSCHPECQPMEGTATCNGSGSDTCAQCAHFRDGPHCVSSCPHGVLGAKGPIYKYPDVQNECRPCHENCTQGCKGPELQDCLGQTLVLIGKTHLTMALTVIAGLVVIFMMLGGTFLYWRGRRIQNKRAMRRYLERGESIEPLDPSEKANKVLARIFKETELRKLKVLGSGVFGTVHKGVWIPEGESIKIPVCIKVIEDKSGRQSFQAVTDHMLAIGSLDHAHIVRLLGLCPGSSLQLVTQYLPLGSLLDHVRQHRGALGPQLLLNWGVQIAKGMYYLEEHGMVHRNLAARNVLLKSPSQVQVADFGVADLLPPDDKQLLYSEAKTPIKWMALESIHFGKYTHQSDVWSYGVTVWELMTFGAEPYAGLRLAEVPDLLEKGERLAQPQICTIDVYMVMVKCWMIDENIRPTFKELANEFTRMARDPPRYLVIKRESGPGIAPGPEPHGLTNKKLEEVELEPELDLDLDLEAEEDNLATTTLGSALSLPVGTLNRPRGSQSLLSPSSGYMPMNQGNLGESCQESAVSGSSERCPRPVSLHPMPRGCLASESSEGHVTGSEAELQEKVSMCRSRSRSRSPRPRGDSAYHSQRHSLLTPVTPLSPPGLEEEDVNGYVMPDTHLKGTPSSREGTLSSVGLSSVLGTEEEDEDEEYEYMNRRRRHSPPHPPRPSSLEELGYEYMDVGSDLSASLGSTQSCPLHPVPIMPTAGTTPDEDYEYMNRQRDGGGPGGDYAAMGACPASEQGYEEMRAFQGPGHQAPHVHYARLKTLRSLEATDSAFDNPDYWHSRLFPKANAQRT
T1 sequence (P51813 whole entry): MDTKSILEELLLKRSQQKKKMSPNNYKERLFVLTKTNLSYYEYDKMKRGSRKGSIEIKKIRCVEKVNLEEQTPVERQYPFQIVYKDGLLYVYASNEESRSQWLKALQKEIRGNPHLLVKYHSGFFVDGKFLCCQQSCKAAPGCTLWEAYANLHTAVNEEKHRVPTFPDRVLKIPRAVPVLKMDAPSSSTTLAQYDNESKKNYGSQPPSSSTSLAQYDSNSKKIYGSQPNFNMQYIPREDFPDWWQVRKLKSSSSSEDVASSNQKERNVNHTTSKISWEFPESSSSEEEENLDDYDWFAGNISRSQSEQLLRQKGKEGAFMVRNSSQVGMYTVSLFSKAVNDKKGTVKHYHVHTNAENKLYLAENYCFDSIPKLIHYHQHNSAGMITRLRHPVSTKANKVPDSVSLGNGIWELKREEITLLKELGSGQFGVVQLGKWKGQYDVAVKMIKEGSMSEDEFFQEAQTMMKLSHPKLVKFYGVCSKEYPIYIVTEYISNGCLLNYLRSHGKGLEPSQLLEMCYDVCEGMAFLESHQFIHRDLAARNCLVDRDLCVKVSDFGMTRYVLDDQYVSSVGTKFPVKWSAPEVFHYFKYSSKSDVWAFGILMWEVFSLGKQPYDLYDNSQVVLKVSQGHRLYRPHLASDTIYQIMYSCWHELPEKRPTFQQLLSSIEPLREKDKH

Row | GI50 [1] [µM] | GI50 [2] [µM] | Compound | remaining binding at 1 µM [3] [%] | remaining binding at 1 µM [4] [%] | remaining binding at 1 µM [5] [%] | remaining binding at 1 µM [6] [%] | degradation of BMX protein [7] | remaining binding at 1 µM [8] [%] | remaining binding at 1 µM [9] [%]
1 | 4.8 | 2.09 | C=CC(=O)Nc1cc(-n2c(=O)ccc3cnc4cc(-c5ccc(NS(C)(=O)=O)cc5)ccc4c32)ccc1C [JS24] | – | – | – | – | – | – | –
2 | – | – | C=CC(=O)Nc1cc(C)cc(-n2c(=O)ccc3cnc4cc(-c5ccc(NS(C)(=O)=O)cc5)ccc4c32)c1 [JS25] | 52 | 91 | 0.4 | 4.7 | induce degradation of wild-type BMX in PC3 cells | 99 | 89
